Here are results for one compound from patent publication US20080200515A1, “SOLID STATE FORMS OF ENANTIOPURE ILAPRAZOLE” (TAP PHARMACEUTICAL PRODUCTS INC., priority 2006, published 2008).

For assay [1], the system named is gastric acid. Description: Phase 1 clinical studies with ilaprazole: suppression of gastric acid. The format is in vivo, human. The note with it: at the doses studied.
In assay [2] the test system is acid-related gastric and duodenal ulcers. Description: Phase 2 clinical studies with ilaprazole in patients with gastric-acid related disorders. The format is in vivo, human. The note with it: at the doses studied.

For `COc1ccnc(C[S+]([O-])c2nc3cc(-n4cccc4)ccc3[nH]2)c1C` (stereo not drawn) [ilaprazole, 2[[(4-methoxy-3-methyl-2-pyridinyl)-methyl]sulfinyl]-5-(1H-pyrrol-1-yl) 1H-Benzimidazole], the “suppression of gastric acid” value in assay [1] is reported as “suppression of gastric acid occurs over a 24-hour period”. In assay [2], the “healing of acid-related gastric and duodenal ulcers” value is reported as “promoted rapid healing”. Moreover, in assay [2] (patients with gastric-acid related disorders), the symptomatic relief entry is on record as “provided symptomatic relief”.
